Measured values: US9024017B2, “Octahydro-cyclopentapyrrolyl antagonists of CCR2” (Janssen Pharmaceutica NV, priority 2012, dated 2015)

Molecular target: T1, CCR2 (Homo sapiens, UniProt P41597)
T1 construct: host or cells: THP-1 (human monocytic cell line)
Assay: MCP-1 Receptor Binding Assay in THP-1 Cells
Conditions: read-out: MCP1B_v3 IC50
Method: Compounds of the invention were subjected to various representative biological tests. […] MCP-1 Receptor Binding Assay in THP-1 Cells Human monocytic cell line THP-1 cells were obtained from American Type Culture Collection (Manassas, Va., USA). The THP-1 cells were grown in RPMI-1640 (RPMI: Roswell Park Memorial Institute Medium-cell culture growth media) supplemented with 10% fetal bovine serum in a humidified 5% CO2 atmosphere at 37° C. The cell density was maintained between […].
THP-1 (cells were incubated with 0.5 nM ^125I labeled MCP-1 (Perkin-Elmer Life Sciences, Inc. Boston, Mass.) in the presence of varying concentrations of either unlabeled MCP-1 (R & D Systems, Minneapolis, Minn.) or test compound for 2 hours at 30° C. in a 96 well plate. Cells were then harvested onto a filter plate, dried, and 20 μL of Microscint 20 was added to each well. Plates were counted in a TopCount NXT, Microplate Scintillation & Luminescence Counter (Perkin-Elmer Life Sciences, Inc. Boston, Mass.). Blank values (buffer only) were subtracted from all values and drug treated values were compared to vehicle treated values. 1 μM cold MCP-1 was used for nonspecific binding.

T1 sequence (P41597 whole entry): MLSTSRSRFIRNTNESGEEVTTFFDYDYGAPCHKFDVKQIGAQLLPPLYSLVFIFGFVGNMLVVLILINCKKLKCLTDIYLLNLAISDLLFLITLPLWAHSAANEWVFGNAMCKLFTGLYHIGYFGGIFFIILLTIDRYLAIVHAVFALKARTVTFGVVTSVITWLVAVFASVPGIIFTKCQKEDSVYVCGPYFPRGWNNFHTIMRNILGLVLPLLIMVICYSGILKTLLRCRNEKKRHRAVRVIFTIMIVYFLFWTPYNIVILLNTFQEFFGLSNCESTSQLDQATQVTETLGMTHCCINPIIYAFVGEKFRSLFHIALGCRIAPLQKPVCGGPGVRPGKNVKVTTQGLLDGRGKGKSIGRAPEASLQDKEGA

Row | Structure (SMILES) | IC50 [nM]
1 | COC1COCCC1N(C(=S)NCC(C)C)[C@@H]1C[C@H]2CN(C(=S)NCC(C)C)C[C@@]2(C(=O)N2CCc3ncc(C(F)(F)F)cc3C2)C1 (relative stereo) [Example 30, (3aR,5R,6aR)-N-Isobutyl-5-((3S*,4S*)-3-isobutyl-1-(3-methoxytetrahydro-2H-pyran-4-yl)thioureido)-3a-(3-(trifluoromethyl)-5,6,7,8-tetrahydro-1,6-naphthyridine-6-carbonyl)hexahydrocyclopenta[c]pyrrole-2(1H)-carbothioamide] | 90
2 | COC1COCCC1N[C@@H]1C[C@H]2CN(C(=O)OCC(C)(C)C)C[C@@]2(C(=O)N2CCc3ncc(C(F)(F)F)cc3C2)C1 (relative stereo) [Example 36, (3aR,5R,6aR)-Neopentyl 5-(((3S*,4S*)-3-methoxytetrahydro-2H-pyran-4-yl)amino)-3a-(3-(trifluoromethyl)-5,6,7,8-tetrahydro-1,6-naphthyridine-6-carbonyl)hexahydro-cyclopenta[c]pyrrole-2(1H)-carboxylate] | 560
3 | CCN1C[C@@H]2C[C@@H](NC3CCOCC3OC)C[C@]2(C(=O)N2CCc3ncc(C(F)(F)F)cc3C2)C1 (relative stereo) [Example 98, ((3aR,5R,6aR)-2-Ethyl-5-(((3S*,4S*)-3-methoxytetrahydro-2H-pyran-4-yl)amino)octahydrocyclopenta[c]pyrrol-3a-yl)(3-(trifluoromethyl)-7,8-dihydro-1,6-naphthyridin-6(5H)-yl)methanone] | 630
4 | COC1COCCC1N[C@@H]1C[C@H]2CN(S(=O)(=O)NCc3ccccc3)C[C@@]2(C(=O)N2CCc3ncc(C(F)(F)F)cc3C2)C1 (relative stereo) [Example 33, (3aR,5R,6aR)-N-Benzyl-5-(((3S*,4S*)-3-methoxytetrahydro-2H-pyran-4-yl)amino)-3a-(3-(trifluoromethyl)-5,6,7,8-tetrahydro-1,6-naphthyridine-6-carbonyl)hexahydrocyclopenta[c]pyrrole-2(1H)-sulfonamide] | 410
5 | COC1COCCC1N[C@@H]1C[C@H]2CN(C(N)=O)C[C@@]2(C(=O)NCc2cccc(C(F)(F)F)c2)C1 (relative stereo) [Example 10, (3aR,5R,6aR)-5-(((3S*,4S*)-3-Methoxytetrahydro-2H-pyran-4-yl)amino)-N^3a-(3-(trifluoromethyl)benzyl)hexahydrocyclopenta[c]pyrrole-2,3a(1H)-dicarboxamide] | 320
6 | COC1COCCC1N[C@@H]1C[C@H]2CN(C(=O)CCN(C)C)C[C@@]2(C(=O)N2CCc3ncc(C(F)(F)F)cc3C2)C1 (relative stereo) [Example 77, 3-(Dimethylamino)-1-((3aR,5R,6aR)-5-(((3S*,4S*)-3-methoxytetrahydro-2H-pyran-4-yl)amino)-3a-(3-(trifluoromethyl)-5,6,7,8-tetrahydro-1,6-naphthyridine-6-carbonyl)hexahydrocyclopenta[c]pyrrol-2(1H)-yl)propan-1-one] | 230
7 | COC1COCCC1N[C@@H]1C[C@H]2CN(C(=O)OCCN(C)C)C[C@@]2(C(=O)N2CCc3ncc(C(F)(F)F)cc3C2)C1 (relative stereo) [Example 54, (3aR,5R,6aR)-2-(Dimethylamino)ethyl 5-(((3S*,4S*)-3-methoxytetrahydro-2H-pyran-4-yl)amino)-3a-(3-(trifluoromethyl)-5,6,7,8-tetrahydro-1,6-naphthyridine-6-carbonyl)-hexahydrocyclopenta[c]pyrrole-2(1H)-carboxylate] | 150
8 | CO[C@H]1COCC[C@H]1N[C@@H]1C[C@H]2CN(C(N)=O)C[C@@]2(C(=O)N2CCc3ncc(C(F)(F)F)cc3C2)C1 [Example 4] | 40
9 | COC1COCCC1N[C@@H]1C[C@H]2CN(C(N)=O)C[C@@]2(C(=O)N2CCc3ccc(C(F)(F)F)cc3C2)C1 (relative stereo) [Example 6, (3aR,5R,6aR)-5-(((3S*,4S*)-3-Methoxytetrahydro-2H-pyran-4-yl)amino)-3a-(7-(trifluoromethyl)-1,2,3,4-tetrahydroisoquinoline-2-carbonyl)hexahydrocyclopenta-[c]pyrrole-2(1H)-carboxamide] | 10
10 | C#CCOC(=O)N1C[C@@H]2C[C@@H](NC3CCOCC3OC)C[C@]2(C(=O)N2CCc3ncc(C(F)(F)F)cc3C2)C1 (relative stereo) [Example 53, (3aR,5R,6aR)-Prop-2-yn-1-yl 5-(((3S*,4S*)-3-methoxytetrahydro-2H-pyran-4-yl)amino)-3a-(3-(trifluoromethyl)-5,6,7,8-tetrahydro-1,6-naphthyridine-6-carbonyl)hexahydrocyclopenta[c]pyrrole-2(1H)-carboxylate] | 200
11 | COC1COCCC1N[C@@H]1C[C@H]2CN(C(=O)NCc3ccccc3)C[C@@]2(C(=O)N2CCc3ncc(C(F)(F)F)cc3C2)C1 (relative stereo) [Example 17, (3aR,5R,6aR)-N-benzyl-5-(((3S*,4S*)-(3-methoxytetrahydro-2H-pyran-4-yl)amino)-3a-(3-(trifluoromethyl)-5,6,7,8-tetrahydro-1,6-naphthyridine-6-carbonyl)hexahydrocyclopenta-[c]pyrrole-2(1H)-carboxamide] | 60
12 | CO[C@@H]1COCC[C@@H]1N[C@@H]1C[C@H]2CN(C(N)=O)C[C@@]2(C(=O)N2CCc3ncc(C(F)(F)F)cc3C2)C1 [Example 3] | 30
13 | COC1COCCC1N[C@@H]1C[C@H]2CN(C(=O)OCCN3CCCC3)C[C@@]2(C(=O)N2CCc3ncc(C(F)(F)F)cc3C2)C1 (relative stereo) [Example 45, (3aR,5R,6aR)-2-(Pyrrolidin-1-yl)ethyl 5-(((3S*,4S*)-3-methoxytetrahydro-2H-pyran-4-yl)amino)-3a-(3-(trifluoromethyl)-5,6,7,8-tetrahydro-1,6-naphthyridine-6-carbonyl)hexahydrocyclopenta[c]pyrrole-2(1H)-carboxyl] | 70
14 | COC1COCCC1N[C@@H]1C[C@H]2CN(C(=S)n3ccnc3)C[C@@]2(C(=O)N2CCc3ncc(C(F)(F)F)cc3C2)C1 (relative stereo) [Example 31, ((3aR,5R,6aR)-2-(1H-Imidazole-1-carbonothioyl)-5-(((3S*,4S*)-3-methoxytetrahydro-2H-pyran-4-yl)amino)octahydrocyclopenta[c]pyrrol-3a-yl)(3-(trifluoromethyl)-7,8-dihydro-1,6-naphthyridin-6(5H)-yl)methanone] | 80
15 | COC1COCCC1N[C@@H]1C[C@H]2CN(C(=O)/C=C/CN3CCCC3)C[C@@]2(C(=O)N2CCc3ncc(C(F)(F)F)cc3C2)C1 (relative stereo) [Example 88, (E)-1-((3aR,5R,6aR)-5-(((3S*,4S*)-3-methoxytetrahydro-2H-pyran-4-yl)amino)-3a-(3-(trifluoromethyl)-5,6,7,8-tetrahydro-1,6-naphthyridine-6-carbonyl)hexahydro-cyclopenta[c]pyrrol-2(1H)-yl)-4-(pyrrolidin-1-yl)but-2-en-1-one] | 40
16 | COC1COCCC1N[C@@H]1C[C@H]2CN(c3ccccc3)C[C@@]2(C(=O)N2CCc3ncc(C(F)(F)F)cc3C2)C1 (relative stereo) [Example 108, ((3aR,5R,6aR)-5-(((3S*,4S*)-3-Methoxytetrahydro-2H-pyran-4-yl)amino)-2-phenyloctahydrocyclopenta[c]pyrrol-3a-yl)(3-(trifluoromethyl)-7,8-dihydro-1,6-naphthyridin-6(5H)-yl)methanone] | 120
17 | COC1COCCC1N[C@@H]1C[C@H]2CN(C(=O)c3ccccc3)C[C@@]2(C(=O)N2CCc3ncc(C(F)(F)F)cc3C2)C1 (relative stereo) [Example 69, ((3aR,5R,6aR)-2-Benzoyl-5-(((3S*,4S*)-3-methoxytetrahydro-2H-pyran-4-yl)amino)-octahydrocyclopenta[c]pyrrol-3a-yl)(3-(trifluoromethyl)-7,8-dihydro-1,6-naphthyridin-6(5H)-yl)methanone] | 150
18 | COC1COCCC1N[C@@H]1C[C@H]2CN(S(=O)(=O)CCc3ccccc3)C[C@@]2(C(=O)N2CCc3ncc(C(F)(F)F)cc3C2)C1 (relative stereo) [Example 93, ((3aR,5R,6aR)-5-(((3S*,4S*)-3-Methoxytetrahydro-2H-pyran-4-yl)amino)-2-(phenethylsulfonyl)octahydrocyclopenta[c]pyrrol-3a-yl)(3-(trifluoromethyl)-7,8-dihydro-1,6-naphthyridin-6(5H)-yl)methanone] | 980
19 | COC1COCCC1N[C@@H]1C[C@H]2CN(C(=O)OCC(C)C)C[C@@]2(C(=O)N2CCc3ncc(C(F)(F)F)cc3C2)C1 (relative stereo) [Example 64, (3aR,5R,6aR)-Isobutyl 5-(((3S*,4S*)-3-methoxytetrahydro-2H-pyran-4-yl)amino)-3a-(3-(trifluoromethyl)-5,6,7,8-tetrahydro-1,6-naphthyridine-6-carbonyl)hexahydro-cyclopenta[c]pyrrole-2(1H)-carboxylate] | 40
20 | COC1COCCC1N[C@@H]1C[C@H]2CN(C(=O)n3ccnc3)C[C@@]2(C(=O)N2CCc3ncc(C(F)(F)F)cc3C2)C1 (relative stereo) [Example 23, ((3aR,5R,6aR)-2-(1H-Imidazole-1-carbonyl)-5-(((3S*,4S*)-3-methoxytetrahydro-2H-pyran-4-yl)amino)octahydrocyclopenta[c]pyrrol-3a-yl)(3-(trifluoromethyl)-7,8-dihydro-1,6-naphthyridin-6(5H)-yl)methanone] | 280
